Data on five molecules can be found in paper PMC2570486, “The Recently Identified P2Y-Like Receptor GPR17 Is a Sensor of Brain Damage and a New Target for Brain Repair” (PLoS ONE, 2008).

One test has as its target T1, mGPR17 (Mus musculus, UniProt Q6NS65).
T1 construct: contains a 1020 base pairs open reading frame (ORF) that encodes for a putative 339 amino acid protein; expressed in transfected cells; host or cells: 1321N1 human astrocytoma cells (transient, calcium phosphate); membranes
Kind of test: [35S]GTPγS binding in membranes of 1321N1 cells transfected with pcDNA3.1-Gpr17m. Type of test: biochemical. To be noted: for EC50: membranes of 1321N1 cells expressing mouse GPR17, mean±SEM of three experiments, read-out: EC50, stimulation of [35S]GTPγS binding. The method, then:
The pharmacological profile of mGPR17 was then assessed. Since stimulation of GPCRs results in increased binding of GTP to G proteins (which can, in turn, be quantified by measuring [^35S]GTPγS binding to purified membranes; see [13]), GPR17 activation in the heterologous system was determined by testing the increase of [^35S]GTPγS binding by exogenously-added agonists in membranes from transfected cells, [14], [15]. […] The ability of some known purinergic and cysLT antagonists to counteract agonist-induced GTPγS binding stimulation in cells expressing mGPR17 was also assessed.
Figure 1 Effect of purinergic and leukotriene ligands on mGPR17 with [^35S]GTPγS binding. Membrane aliquots (10 µg), obtained from 1321N1 cells transfected with pcDNA3.1-Gpr17m (A,B), were incubated with the indicated concentrations of purinergic (A) or leukotriene (B) agonists. […] (D) Effect of P2Y or CysLT receptor antagonist on agonist-stimulated [^35S]GTPγS binding. […] All data are expressed as percentage of basal [^35S]GTPγS binding (set to 100%) and represent the mean±SEM of three different experiments each performed in duplicate.
Human astrocytoma cells 1321N1 cells were cultured as described. For [^35S]GTPγS, 10^6 1321N1 cells were seeded on 75 cm^2 flasks and transfected by the calcium phosphate precipitation method.
Control and transfected 1321N1 cells were homogenized in 5 mM TRIS-HCl, 2 mM EDTA, pH 7.4 and centrifuged at 48000 g for 15 min at 4°C. The resulting plasma membranes were suspended in binding buffer and used in [^35S]GTPγS binding assay as previously described.
For [^35S]GTPγS binding data analysis and graphic presentation, a non-linear multipurpose curve-fitting program Graph-Pad Prism was used and the EC50 values were derived. Data are reported as mean±SEM of three different experiments (performed in duplicate).

The subject of test [1] is GPR17+ oligodendrocyte precursors in primary cortical cultures. Description: Oligodendrocyte precursor maturation in primary mixed neuronal/glial cortical cultures (immunostaining, cell counts). To be noted: 72 h. Type of test: cell-based, rat.
Description: Figure 4 Presence and activation of GPR17 in oligodendrocyte precursor cells of primary cortical cultures maintained in vitro. […] Micrographs (A–H) show their phenotype characterization. […] Colocalization of GPR17 with these markers is shown in yellow-orange cells. […] In blue, Hoechst 33258 stained nuclei. Single cell RT-PCR was used to confirm expression of GPR17 in oligodendroglial-like cells (I). For this analysis, cells were picked up from living cultures using cell morphology as a guide at the light microscope. Left micrograph: an example of a brightfield showing cells (arrows) with oligodendrocyte morphology. These cells can be distinguished from neurons based on their size (approximately 1/3 the size of neurons), phase-dark cell bodies and presence of fine ramifications. The oligodendrocyte nature of cells with this morphology was confirmed by co-immunostaining for O4 and GPR17 at a subsequent time after culture fixing (arrows in right micrograph). By following this method, one living cell or a small number of cells (up to 10) were sucked from living cultures (see MATERIALS AND METHODS) and processed for RT-PCR analysis. […] Rat cortex was utilized as a positive control (see last lane). Scale bars: 15 µm. […] (K) Quantification of the percentage of GPR17^+ cells that also co-express the indicated oligodendrocyte markers. Total number (n) of GPR17^+ cells counted from two different coverslips for each preparation: for NG2, n = 3502; for O4, n = 2685; for CNPase, n = 1738; for MBP, n = 3615. Data were obtained from five different primary culture preparations.
Primary mixed neuronal/glial cultures from cerebral cortex were obtained from E18 Sprague-Dawley rats according to standard procedures [34]. Pregnant animals were euthanized by cervical dislocation under CO2 anesthesia, and the fetuses removed and put into ice-cold Hanks balanced salt solution. […]
The next test concerns the target T2, GPR17 (Mus musculus, UniProt Q6NS65).
T2 construct: from tissue; host or cells: brain of living male CD1 mice after permanent MCAo
Description: Permanent MCAo focal cerebral ischemia, brain infarct size by MRI. In kind it is in vivo.

The mark [2] stands for this setting: UDP-glucose 100 µM, LTD4 100 nM.

T1 sequence (Q6NS65 whole entry): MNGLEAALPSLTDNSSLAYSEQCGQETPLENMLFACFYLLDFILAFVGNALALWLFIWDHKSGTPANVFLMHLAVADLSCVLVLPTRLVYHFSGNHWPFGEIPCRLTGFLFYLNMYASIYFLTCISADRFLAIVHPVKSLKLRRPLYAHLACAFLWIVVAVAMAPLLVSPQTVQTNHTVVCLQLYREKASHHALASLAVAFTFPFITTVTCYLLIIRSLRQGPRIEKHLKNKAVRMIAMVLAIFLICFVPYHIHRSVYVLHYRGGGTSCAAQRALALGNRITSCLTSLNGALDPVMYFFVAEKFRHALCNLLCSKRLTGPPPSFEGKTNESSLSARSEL
T2 sequence (Q6NS65 whole entry): as above

The IC50 is the point on the concentration scale where inhibition reaches its midpoint. Take `CSCCNc1nc(SCCC(F)(F)F)nc2c1ncn2[C@@H]1O[C@H](COP(=O)(O)OP(=O)(O)C(Cl)(Cl)P(=O)(O)O)[C@@H](O)[C@H]1O` [Cangrelor]: the IC50 at mGPR17 (membranes of 1321N1 cells expressing mGPR17, 10 min pre-incubation, 500 nM UDP, read-out: IC50, inhibition of GTPγS binding stimulated by UDP) came to 1.2 ± 0.3 nM. In test [1] (10 µM antagonist with 100 µM UDP-glucose), the “effect on UDP-glucose-induced increase of GPR17+ and MBP+ cells” value is reported as “partially counteracted”. Besides, at GPR17 (cangrelor 1.125 µg/animal i.c.v. 20 min after MCAo, oligonucleotides 10 µg/animal i.c.v. 20 min and 24 h after MCAo), the “progression of ischemic damage (brain infarct volume) at 24 and 48 h vs 2 h” value was “totally abolished”. The “ischemic infarct volume at 2 h after MCAo” value at GPR17 (i.c.v. treatment 20 min after MCAo, 6 animals/group, no significant differences between groups) came to 16.4±4.23 mm^3.
By EC50 is commonly meant the midpoint of the concentration-response curve. For the molecule `CCCCC/C=C\C\C=C/C=C/C=C/[C@@H](SC[C@H](NC(=O)CC[C@H](N)C(=O)O)C(=O)NCC(=O)O)[C@@H](O)CCCC(=O)O` [LTC4], the EC50 at mGPR17 stood at 0.74 ± 0.2 nM.
Regarding `CCCCC/C=C\C\C=C/C=C/C=C/[C@@H](SC[C@H](N)C(=O)NCC(=O)O)[C@@H](O)CCCC(=O)O` [LTD4], the EC50 on mGPR17 came to 0.63 ± 0.1 nM. Besides, in test [1] (setting [2]), the “number of GPR17+ precursor cells” value is reported as “significantly increased” and the “number of mature MBP+ oligodendroglial cells” value is reported as “significantly increased”.
As to `CCCCC/C=C\C\C=C/C=C/C=C/[C@@H](SC[C@H](N)C(=O)O)[C@@H](O)CCCC(=O)O` [LTE4], the half-maximal effective concentration (EC50) on mGPR17 came to 0.31 ± 0.09 nM.
In the case of `O=c1ccn([C@@H]2O[C@H](COP(=O)(O)OP(=O)(O)O)[C@@H](O)[C@H]2O)c(=O)[nH]1` [UDP], the EC50 at mGPR17 was 55 ± 6.2 nM.
